The source of these data is patent EP4806421A2, “PHARMACEUTICAL COMPOSITIONS OF NANOCRYSTALLIZED XANTHATIN AND USE THEREOF AS AN ANTI-TUMOR AGENT” (Centro de Investigación y Desarrollo de Medicamentos CIDEM, priority 2023, dated 2025).

Test [1] relates to HT-29 human colorectal adenocarcinoma tumor line. Kind of test: Cell cycle progression by flow cytometry (PI/RNase staining). Type of test: cell-based. The settings on record: HT-29 cells, 10 and 20 µM, 48 h, compared with untreated control and docetaxel 2 µM positive control. As to the method: Assay to evaluate the in vitro antiproliferative activity of nanocrystallized xanthatin by flow cytometry.
The antiproliferative activity through cell cycling arrest was evaluated in HT-29 cells. Cells were cultured in 6-well plates (2×10^5 and 1×10^5 cells/ml, respectively) until 90% confluence was reached. Three xanthatin samples were evaluated: commercial, laboratory-isolated, and nanocrystallized xanthatin at concentrations of 10 and 20 µM. Prior to treatment, both commercial and isolated xanthatin were dissolved in DMSO, unlike nanocrystallized xanthatin, which was added directly to the cell culture medium. Medium supplemented with 1% FBS was used as the control. Docetaxel 2 µM was used as a positive control for cell cycle arrest in G2/M. The treatments were added to the medium supplemented with 1% FBS on the day after seeding the cells on the plates. The cells were incubated for 48 h upon the treatments, harvested, fixed in 100% ethanol, and stored at -20°C. Cell cycle distribution was next assessed using flow cytometry. On the day of the assay, samples were incubated with a PI/Rnase mixture at room temperature and in the dark for 20 min prior to analysis.
(Flow cytometry measures light scatter and fluorescence of single cells or particles in a stream.)

For test [2], the system named is murine U14 cervical carcinoma cells. Kind of test: In vivo antitumor effect of in situ gelation containing xanthatin nanocrystals, tumor implant near the cervix. The arrangement: species or system female BALB/c mice. The settings on record: hydrogel intravaginal 0.850 mg nanocrystallized xanthatin per mouse daily for 5 days, carboplatin i.v. 0.675 mg per mouse for 3 days. The protocol:
Evaluation of the in vivo antitumor effect of in situ gelation containing xanthatin nanocrystals was performed using murine U14 cervical carcinoma cells inoculated into the cervix of female BALB/c mice with an average weights of 22-24 g. Tumor implantation was performed by inoculating the submucosa near the cervix of each animal with 25 µL of cell suspension in PBS, with a total of 4×10^5 cells/mouse. Four randomly distributed groups of 6 animals per group were formed. The treatment schedule was carried out for 5 days with a daily intravaginal infusion of the thermosensitive hydrogel containing the xanthatin nanocrystals (8.5 µL, 0.850 mg of nanocrystallized xanthatin per mouse) and placebo, and for 3 days with a daily intravaginal infusion of […] Tumor weight and tumor inhibition rates were evaluated. Tumor inhibition rate was calculated using the following formula: TIR = (Aw −Ax)/([…]) × 100 [formula]
Where: • TIR means tumor inhibition rate in %. • AW means the average weight of tumors in the control group. • Ax means the average weight of the tumors of the treated group.

The test system of test [3] is HT-29 colorectal adenocarcinoma. Nature of the test: MTT reduction assay, cell viability (HT-29). The settings on record: HT-29 cells, 10 and 20 µM, 24 h, isolated xanthatin dissolved in DMSO, nanocrystals added directly to the medium. Type of test: cell-based, human. The protocol:
(§1) Cell growth inhibition of nanocrystallized xanthatin assessed using the MTT assay.
(§2) The viability of the cultured cells was assessed using the MTT reduction assay. The assay was performed using the method described by Mosmann (1983). HT-29 and HeLa cells were seeded in 96-well plates at 10^4 cells/ml and 5x10^3 cells/ml respectively. The cells were cultured in Dulbecco's modified Eagle's medium (DMEM) supplemented with 10% FBS, 1% glutamine, triple antibiotic (3A), and 25 mM glucose, and maintained at 37°C in a 5% CO2 incubator until 80-90% confluence. After 24h of incubation, to ensure cell adhesion, the medium was removed and different concentrations (10 and 20 µM) of either commercial xanthatin, isolated xanthatin, and xanthatin nanocrystals, or as a negative control medium supplemented with 1% DMSO, were added. Prior to treatment, the commercial and isolated xanthatin samples were dissolved in DMSO, unlike the nanocrystallized xanthatin that was directly added to the cell culture medium. The prepared plates were incubated for 24 h, and 50 µL MTT (5 mg/ml) per well was added to a final concentration of 1 mg/ml. […] Relative cell viability was determined by measuring the absorbance at 540 nm on an ELISA plate reader (Tecan Sunrise MR20-301, TECAN Austria). Absorbance is directly proportional to the level of cell proliferation or viability. […]
(Tetrazolium assays rely on reduction of a dye to a coloured formazan, in cell work by metabolically active cells.)

The test system of test [4] is HeLa cervical carcinoma tumor lines. Nature of the test: MTT reduction assay, cell viability (HeLa). Type of test: cell-based, human. The conditions noted are these: HeLa cells, 10 and 20 µM, 24 h, isolated xanthatin dissolved in DMSO, nanocrystals added directly to the medium. The protocol:
as §1, §2

Molecules are shown by their SMILES.

As for `C=C1C(=O)O[C@H]2C[C@H](C)C(/C=C/C(C)=O)=CC[C@H]12` [commercial xanthatin, xanthatin], in test [1], the “cell cycle arrest in the G2/M phase” value is “no statistically significant differences”.

For `N.N.O=C([O-])C1(C(=O)[O-])CCC1.[Pt+2]` [injectable carboplatin, carboplatin], in test [2] (calculated from average tumor weights), the tumor inhibition rate is 54.4%. Further, the tumor weight result in test [2] (with respect to the placebo and control groups) is “significant decrease”.

As to `C=C1C(=O)O[C@H]2C[C@H](C)C(/C=C/C(C)=O)=CC[C@H]12` [laboratory isolated xanthatin, xanthatin], in test [1] (listed as isolated xanthatin), the “cell cycle arrest in the G2/M phase” value is on record as “induced cell cycle arrest in the G2/M phase”. Besides, the viability inhibition entry in test [3] and in test [4] was “significantly higher than that of commercial xanthatin” in each case.
